Reference: patent publication US10238612B2, “Transdermal administration of tamsulosin” (Corium International, Inc., priority 2009, dated 2019)

Assay: Solubility of tamsulosin in DMSO and in mixtures of DMSO and water
Type: physicochemical
Text: For example, dimethylsulfoxide (DMSO) may potentially be used. The table below gives some data on the solubility of tamsulosin in DMSO and in mixtures of DMSO and water: […]

Solubility of Tamsulosin (Water in DMSO 0 w/w %): 230 mg/g
Solubility of Tamsulosin (w/w %) (Water in DMSO 0 w/w %): 23.0 w/w %
Solubility of Tamsulosin (Water in DMSO 8.85 w/w %): 72.9 mg/g
Solubility of Tamsulosin (w/w %) (Water in DMSO 8.85 w/w %): 7.29 w/w %
Solubility of Tamsulosin (Water in DMSO 16.85 w/w %): 30.2 mg/g
Solubility of Tamsulosin (w/w %) (Water in DMSO 16.85 w/w %): 3.02 w/w %
Solubility of Tamsulosin (w/w %) (Water in DMSO 29.19 w/w %): 0.52 w/w %
SMILES: CCOc1ccccc1OCCN[C@H](C)Cc1ccc(OC)c(S(N)(=O)=O)c1 [Tamsulosin, 5-[2-[[2-(2-ethoxyphenoxy)ethyl]amino]propyl]-2-methoxy-benzenesulfonamide]
